pEC50: −log10 of the molar value.
Legend:
Huh-7 cells [1] = assay: Cell viability, luminescence-based CellTiter-Glo assay, Huh-7 cells; conditions: Homo sapiens, Huh-7, Huh-7 cells, cell viability; read-out: EC50 Huh-7
Description: The viability of Huh-7 cells was recorded using a luminescence-based CellTiter-Glo® assay. The screening concentration of the molecules were 10 μM with or without Fer-1 (10 μM) in DMEM media (>0.1% DMSO as control).
Ferroptosis is a unique form of cell death mechanism mediated by the accumulation of lipid peroxides in cells which is distinct from healthy cells' apoptosis, a programmed […] route. We aimed to exploit the induction of ferroptosis in cancer cells using covalent small molecules as a potential strategy for cancer therapeutic development. […] We used various amide bond formation chemistry to construct the library members and these molecules are well characterized by various spectroscopic and mass spectrometry techniques. Once confirmed, these thiol reactive library members were screened in a cancer cell viability assay in combination with ferrostatin-1 (Fer-1), a ferroptosis inhibitor as depicted in FIG. 11. […] We have screened a total of ˜50 electrophilic small molecules to prevent the proliferation of hepatocellular carcinoma (Huh-7 cells) in combination with and without Fer-1. From our initial screening, we identified haloacetamides of 2-aminoalkylbenzophenone as potential ferroptosis inducers as depicted in FIG. 11.
(§1) The viability of screened cancer cells was recorded using a luminescence-based CellTiter-Glo® assay for the ATP quantification. The screening concentration of the molecule ranged from 100/10 μM to 45/4.5 nM with an 8-point-3-fold dilution series in DMEM media (>0.1% DMSO as control). Each experiment was conducted in more than two biological replicates with three technical replicates. The error bar is a representation of standard deviation among the technical replicates.
The viability of screened cancer cells was recorded using a luminescence-based CellTiter-Glo® assay for the ATP quantification. The screening concentration of IITK3002 ranged from 10 μM to 4.5 nM with an 8-point-3-fold dilution series in DMEM media (>0.1% DMSO as control). Each experiment was conducted in more than two biological replicates with three technical replicates. The error bar is a representation of standard deviation among the technical replicates. […]
a. Electrophilic Warhead Optimization: Once we identified 2-benzoylphenyl-a-haloacetamide as the lead scaffold, we have investigated the structure-activity-relationship analysis to precisely capture the effect of various chemical handles of the scaffold and use the knowledge to improve the overall potency and selectivity of this molecule to prevent cancer cell proliferation. First, we changed the haloacetamide electrophilic unit with various other electrophiles with a characteristic high, moderate, and weak reactivity with thiols when compared to chloroacetamide. Therefore, we opted vinylsulfonamide (highly reactivity), acrylamide (moderate reactivity), and phenoxyacetamides (weak reactivity warheads) for incorporation in the place of haloacetamide warhead of the top hit scaffold. Once synthesized, these molecules were evaluated to assess their antiproliferative potency against Huh-7 cells (Table 2). As expected, the introduction of weakly reactive electrophilic warheads, phenoxyactamides, completely lost the activity against Huh-7 cells. […] Perhaps, the secondary interactions of the electrophilic warhead with the target proteins might play additional roles. Therefore, we shifted our focus to optimize the rest of the core scaffold for further SAR analysis. b. Role of N-Substitutions: Next, we synthesized the NH-derivative of haloacetamides to capture the importance of N-alkylation on the activity of our hit molecule. […] Perhaps the hydrogen bonding induced planarity around the warhead influences the molecules' weakened potency. Conversely, the additional flexibility in the lead molecule (tertiary amide) might contribute to the strong antiproliferative activity of the hit molecule. […]

PC3 = assay: Cell viability, CellTiter-Glo assay, PC3; format: cell-based; conditions: Homo sapiens, PC-3, PC3, cell viability
Description: as §1
(§2) The viability of screened cancer cells was recorded using a luminescence-based CellTiter-Glo® assay for the ATP quantification. The screening concentration of IITK3002 ranged from 10 μM to 4.5 nM with an 8-point-3-fold dilution series in DMEM media (>0.1% DMSO as control). Each experiment was conducted in more than two biological replicates with three technical replicates. The error bar is a representation of standard deviation among the technical replicates.
(§3) a. […] In parallel, we have also synthesized the bromoacetamide (IITK3002) version of the lead molecules which is slightly more reactive with thiol nucleophiles when compared to chlorooacetamide warheads as depicted in FIG. 13. […] In addition, we also evaluated the molecules' antiproliferative potency against a panel of twelve different cancer phenotypes. The set of cancer cell lines included liver, breast, colon, myeloma, bone, blood, skin, brain and prostate lineages (FIG. 2, 3, Table 1).

U2OS = assay: Cell viability, CellTiter-Glo assay, U2OS; format: cell-based; conditions: Homo sapiens
Description: as §1, §2, §3

22Rv1 = assay: Cell viability, CellTiter-Glo assay, 22Rv1; format: cell-based; conditions: Homo sapiens, 22Rv1, 22Rv1, cell viability
Description: as §1, §2, §3

Huh-7 cells [2] = assay: Combination cell viability experiments with thiols, ferroptosis modulators and cell death inhibitors in Huh-7 cells; format: cell-based; conditions: combination with GSH, NAC, BSO, Fer-1, deferoxamine, RSL3, FIN56, Erastin, QVD-OPh, necrostatin-1; Huh-7 and 4T1
Description: FIG. 14 depicts a combination experiment indicates the involvement of thiol modulation by IITK3001/IITK3002 on the viability of Huh-7 and 4T1 cells, in accordance with an embodiment of the present invention. The viability of screened cancer cells was recorded using a luminescence-based CellTiter-Glo® assay for the ATP quantification. The screening concentration of (a) IITK3001 and (b) IITK3002 ranged from 10 uM to 4.5 nM with an 8-point-3-fold dilution series in DMEM medium (>0.1% DMSO as control). For combination experiments, 500 μM of NAC or glutathione and 25 μM of BSO were used. Each experiment was conducted in more than two biological replicates with three technical replicates. The error bar is a representation of standard deviation among the technical replicates.
(§4) FIG. 16 depicts ferroptosis induction as a cell death mechanism is established for IITK3001 using combination experiments with ferroptosis inducers and inhibitors, in accordance with an embodiment of the present invention. The screening concentration of (a) IITK3001 and (b) IITK3002 ranged from 10 μM to 4.5 nM with an 8-point-3-fold dilution series in DMEM medium (>0.1% DMSO as control). For combination experiments, Ferrostain-1 (10 μM),Deferoxamine (3 μM), RSL3 (10 nM), FIN56 (30 nM), glutamine (0.5 mM), glutamic acid (0.5 mM), Erastin (0.5 μM) were used. Each experiment was conducted in more than two biological replicates with three technical replicates. The error bar is a representation of standard deviation among the technical replicates.
as §4, with “18” for “16”, “IITK3002” for “IITK3001”, “of” for “of (a) IITK3001 and (b)”, “μM), Deferoxamine” for “μM),Deferoxamine”
FIG. 20 depicts combining apoptosis and necroptosis inhibitors ruled out the possibility of respective cell death mechanisms upon treatment with IITK3001 or IITK3002 in Huh-7 and 4T1 cells, in accordance with an embodiment of the present invention. The screening concentration of IITK3001/IITK3002 ranged from 10 μM to 4.5 nM with an 8-point-3-fold dilution series in DMEM medium (>0.1% DMSO as control). For combination experiments, QVD-OPh and Necrsotatin-1 (10 μM) were used. Each experiment was conducted in more than two biological replicates with three technical replicates. The error bar is a representation of standard deviation among the technical replicates.
FIG. 22 depicts ferroptosis induction was established for IITK3003 using combination experiments in Huh-7 cells, in accordance with an embodiment of the present invention. The screening concentration of IITK3002 ranged from 10 uM to 4.5 nM with an 8-point-3-fold dilution series in DMEM medium (>0.1% DMSO as control). For combination experiments, Ferrostain-1 ([…]), Deferoxamine (3 μM), RSL3 (10 nM), FIN56 (30 nM), glutamine (0.5 mM), glutamic acid (0.5 mM), Erastin (0.5 μM) were used. Each experiment was conducted in more than two biological replicates with three technical replicates. The error bar is a representation of standard deviation among the technical replicates.
FIG. 24 depicts ferroptosis induction was established for IITK3004 using combination experiments in Huh-7 cells, in accordance with an embodiment of the present invention. The screening concentration of the molecules (a) IITK3001 and (b) IITK3002 ranged from 10 μM to 4.5 nM with a 8-point-3-fold dilution series. […]

A549 = assay: Cell viability, A549; format: cell-based; conditions: Homo sapiens
Huh-7 cells [3] = assay: Intracellular ROS, H2-DCFDA oxidation assay in Huh-7 cells; format: cell-based; conditions: Huh-7, 37° C., 30 min; IITK3001 and IITK3002 20 μM, H2O2 100 μM
Description: We used fluorescence imaging-based oxidation of H2-DCFDA by ROS for assessing intracellular oxidative stress. Huh-7 cells were treated at 37° C. for 30 min with IITK3001 and IITK3002 (20 μM), H2O2 (100 μM), ^tertBuOOH (20 μM), NAC (0.5 mM) and 0.1% DMSO as control. Each experiment was conducted in more than two biological replicates with three technical replicates.
b. Effect of Thiols and Ferroptosis Modulators on the Hit Molecules' Antiproliferative Potency: Ferroptosis is directly controlled by the intracellular thiol concentrations in the form of cysteine and glutathione. Several oxidative mechanisms are well-wired in ferroptotic cell death and we set out to investigate the precise molecular mechanism of our lead molecules. Both cysteine and glutathione (GSH) are the enriched thiol-containing small molecule antioxidant system that are essential regulators of redox modulation in cells including ferroptosis. Further, the enzyme glutathione peroxidase 4 (GPX4) is well characterized to specifically quench the lipid peroxide equivalents in cells through the conversion of […] in cells thereby restoring the reduced environment in cells. Therefore, first, we assessed the ability of N-acetylcysteine (NAC) and GSH to suppress our lead molecules antiproliferative activity (FIG. 4a, b). We found a drastic reduction in the molecules' potency with IITK3001 (>1000-fold reduction) and IITK3002 (>500-fold reduction) (FIG. 14a, b). Supporting that, the addition of DL-Buthionine sulfoximine (BSO), an inhibitor of y-glutamylcysteine synthetase (glutathione biosynthesis) combination with our lead molecules potentiated the overall inhibitory capacity (FIG. 14a, b). […] Finally, we assessed the effect of Ferrostain-1 (Fer-1) and Liproxstatin-1 (Lip-1), antioxidants that function by trapping reactive radicals in cells, particularly lipid-peroxide radicals, and preventing the accumulation of lipid peroxides in cells. […] The accumulation of lipid peroxides and overall ROS was also detected using a fluorescence-based H2DCF-DA assay as depicted in FIG. 15. […]

Structure (SMILES)	pEC50 (Huh-7 cells [1])	pEC50 (PC3)	pEC50 (U2OS)	pEC50 (22Rv1)	pEC50 (A549)	cell death mechanism from combination experiments (Huh-7 cells [2])	intracellular ROS, H2DCF-DA fluorescence intensity (Huh-7 cells [3])
C#CCN(C(=O)COc1ccc(F)cc1)c1ccccc1C(=O)c1ccccc1 [IITK3030, N-(2-benzoylphenyl)-2-(4-fluorophenoxy)-N-(prop-2-yn-1-yl)acetamide]	< 4.00	< 4.70	< 4.70	< 4.70	< 4.70	–	–
OO [Hydrogen peroxide, reference compound]	–	–	–	–	–	–	drastic enhancement in the fluorescence intensity
CN(C(=O)COc1ccc(Br)cc1)c1ccccc1C(=O)c1ccccc1 [IITK3009, N-(2-benzoylphenyl)-2-(4-bromophenoxy)-N-methylacetamide]	< 4.70	< 4.70	< 4.70	< 4.70	< 4.70	–	–

Further lines, with some results ahead:

pEC50 (Huh-7 cells [1])	pEC50 (PC3)	pEC50 (U2OS)	pEC50 (22Rv1)	pEC50 (A549)	Structure (SMILES)	cell death mechanism from combination experiments (Huh-7 cells [2])	intracellular ROS, H2DCF-DA fluorescence intensity (Huh-7 cells [3])
8.33	6.89	6.43	6.92	–	C#CCN(C(=O)CBr)c1ccccc1C(=O)c1ccccc1 [IITK3004, N-(2-benzoylphenyl)-2-bromo-N-(prop-2-yn-1-yl)acetamide]	exceptionally selective ferroptosis inducers	–
< 4.70	< 4.70	< 4.70	< 4.70	< 4.70	O=C(c1ccccc1)c1ccccc1N(Cc1ccccc1)C(=O)COc1ccc(F)cc1 [IITK3037, N-(2-benzoylphenyl)-N-benzyl-2-(4-fluorophenoxy)acetamide]	–	–

Source: US20250099407A1, “2-AMINO BENZOPHENONE DERIVATIVES FOR TARGETED FERROPTOSIS INDUCTION IN CANCER THERAPY” (INDIAN INSTITUTE OF TECHNOLOGY KANPUR, priority 2023, published 2025)
